Measurements from publication PMC7413254 (Nature Communications, 2020).
Where two headings read alike, the source gives them in different places.

Experiments:
non-expressing oocytes [1] = experiment: cells; assay type: cell-based, Xenopus laevis; details: non-expressing oocytes, total [3H]CQ transport, normalised to the oocyte type control
Outline: (§1)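 Assay buffer ND96 (10 mM MES, 10 mM Tris-base) held at pH 5.5 to mimic vacuole lumen; uptake measured inward from this acidic medium over 1.5 h at 27.5 °C.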

PfCRT^Ecu1110 [2] = biological target: T1, PfCRT^Ecu1110 (Plasmodium falciparum, UniProt Q9N623, A220S/I356L/K76T/N326D); experiment: cell-based; assay type: cell-based; details: for PfCRT-mediated [3H]CQ transport, trans-stimulation (% PfCRTEcu1110 control): normalised to oocyte type control; for [3H]CQ transport (% PfCRTDd2 control), trans-stimulation, PfCRTEcu1110: PfCRT-mediated component (background subtracted), sheet title says normalised to PfCRTDd2 control, mean ± SEM, SEM
Outline: (§2)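 Transport measured in Xenopus oocytes expressing the transporters, 1.5 h at 27.5 °C in ND96 pH 5.5 unless noted. For trans-stimulation, VF-6 injected in 25 nL ND96 at pH 5.0–7.0 or Na^+-free (choline) buffer; intracellular levels based on ~400 nL oocyte volume. Ten oocytes per treatment, ≥4 experiments.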

PfCRT^3D7 [3] = biological target: T2, PfCRT^3D7 (Plasmodium falciparum, UniProt Q8IBZ9); experiment: cell-based; assay type: cell-based; details: for Uptake of [3H]CQ (% PfCRT3D7 control), trans-stimulation / PfCRT-mediated [3H]CQ transport, trans-stimulation (% PfCRT3D7 control): PfCRT3D7 oocytes; for Uptake of [3H]CQ (% PfCRT3D7 control), trans-stimulation: total [3H]CQ transport, normalised to the oocyte type control; for PfCRT-mediated [3H]CQ transport, trans-stimulation (% PfCRT3D7 control): normalised to oocyte type control
Outline: as §2

PfNT1 = biological target: T3, PfNT1 (Plasmodium falciparum, UniProt Q8IDM6); experiment: cell-based; assay type: cell-based; details: PfNT1 oocytes, total [3H]CQ transport, normalised to the oocyte type control
T3 construct: expressed in transfected cells; host or cells: Xenopus laevis oocytes (stage V-VI), cRNA-injected
Outline: as §2

PfCRT^Dd2 [4] = biological target: T4, PfCRT^Dd2 (Plasmodium falciparum, UniProt Q9N623, A220S/I356T/K76T/M74I/N326S/N75E/Q271E/R371I); experiment: cell-based; assay type: cell-based; details: for Uptake of [3H]CQ (% PfCRTDd2 control), trans-stimulation / PfCRT-mediated [3H]CQ transport, trans-stimulation (% PfCRTDd2 control): PfCRTDd2 oocytes; for Uptake of [3H]CQ (% PfCRTDd2 control), trans-stimulation: total [3H]CQ transport, normalised to the oocyte type control; for PfCRT-mediated [3H]CQ transport, trans-stimulation (% PfCRTDd2 control): normalised to oocyte type control; for [3H]CQ transport (% PfCRTDd2 control), trans-stimulation, PfCRTDd2: PfCRT-mediated component (background subtracted), mean ± SEM, SEM
Outline: as §2

PfCRT^Ecu1110 [5] = biological target: T1, PfCRT^Ecu1110; experiment: [3H]CQ uptake into Xenopus oocytes, cis-inhibition by unlabelled solute; assay type: cell-based; details: for Uptake of [3H]CQ (% PfCRTEcu1110 control), cis-inhibition / PfCRT-mediated [3H]CQ transport, cis-inhibition (% PfCRTEcu1110 control): PfCRTEcu1110 oocytes; for Uptake of [3H]CQ (% PfCRTEcu1110 control), cis-inhibition: total [3H]CQ transport, normalised to the oocyte type control; for PfCRT-mediated [3H]CQ transport, cis-inhibition (% PfCRTEcu1110 control): background [3H]CQ accumulation subtracted, normalised to oocyte type control
Outline: as §1

PfCRT^Dd2 [6] = biological target: T4, PfCRT^Dd2; experiment: as above; assay type: cell-based; details: PfCRTDd2 oocytes, background [3H]CQ accumulation subtracted, normalised to oocyte type control
Outline: as §1

PfCRT^3D7 [7] = biological target: T2, PfCRT^3D7; experiment: cell-based; assay type: cell-based; details: PfCRT3D7 oocytes, total [3H]CQ transport, normalised to the oocyte type control
Outline: as §1

non-expressing oocytes [8] = assay type: cell-based, Xenopus laevis; details: non-expressing oocytes, total [3H]CQ transport, normalised to the oocyte type control
Outline: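 Oocytes (ten per treatment, ≥4 independent frogs/days) were preloaded by injecting VF-6 in 25 nL ND96 at pH 5.0, 5.5, 6.0 or 7.0, or Na^+-free choline buffer, then uptake run 1.5 h, 27.5 °C, ND96 pH 5.5 by default. Internal concentrations assumed ~400 nL oocyte volume.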

[9] = [test solute]i = 5 mM (injected)
[10] = [test solute]i = 45 mM (30 mM for some solutes due to solubility)
[11] = [test solute]i = 5 mM (intracellular)
[12] = [test solute]i = 45 mM (intracellular; 30 mM for some solutes due to solubility)

T4 sequence (Q9N623 whole entry A220S/I356T/K76T/M74I/N326S/N75E/Q271E/R371I): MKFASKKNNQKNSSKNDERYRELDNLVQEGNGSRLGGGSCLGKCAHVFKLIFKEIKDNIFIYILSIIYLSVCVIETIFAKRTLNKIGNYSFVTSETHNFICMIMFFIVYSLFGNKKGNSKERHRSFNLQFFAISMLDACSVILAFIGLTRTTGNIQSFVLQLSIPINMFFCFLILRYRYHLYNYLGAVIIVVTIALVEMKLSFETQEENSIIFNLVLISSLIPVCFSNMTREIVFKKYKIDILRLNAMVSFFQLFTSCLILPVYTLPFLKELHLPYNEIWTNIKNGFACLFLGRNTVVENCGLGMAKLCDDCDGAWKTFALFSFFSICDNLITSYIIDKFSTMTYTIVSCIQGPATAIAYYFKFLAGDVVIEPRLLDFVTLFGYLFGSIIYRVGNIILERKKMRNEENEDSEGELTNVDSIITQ
T2 sequence (Q8IBZ9 59-398): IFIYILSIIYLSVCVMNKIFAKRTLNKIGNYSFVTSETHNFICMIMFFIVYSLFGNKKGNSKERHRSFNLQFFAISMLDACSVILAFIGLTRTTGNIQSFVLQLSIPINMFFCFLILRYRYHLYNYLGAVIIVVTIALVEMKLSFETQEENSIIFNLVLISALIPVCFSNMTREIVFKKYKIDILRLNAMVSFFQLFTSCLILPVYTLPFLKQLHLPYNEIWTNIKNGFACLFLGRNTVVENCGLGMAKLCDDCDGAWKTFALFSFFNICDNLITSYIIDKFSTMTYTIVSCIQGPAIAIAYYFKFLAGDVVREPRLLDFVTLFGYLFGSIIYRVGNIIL
T1 sequence (Q9N623 whole entry A220S/I356L/K76T/N326D): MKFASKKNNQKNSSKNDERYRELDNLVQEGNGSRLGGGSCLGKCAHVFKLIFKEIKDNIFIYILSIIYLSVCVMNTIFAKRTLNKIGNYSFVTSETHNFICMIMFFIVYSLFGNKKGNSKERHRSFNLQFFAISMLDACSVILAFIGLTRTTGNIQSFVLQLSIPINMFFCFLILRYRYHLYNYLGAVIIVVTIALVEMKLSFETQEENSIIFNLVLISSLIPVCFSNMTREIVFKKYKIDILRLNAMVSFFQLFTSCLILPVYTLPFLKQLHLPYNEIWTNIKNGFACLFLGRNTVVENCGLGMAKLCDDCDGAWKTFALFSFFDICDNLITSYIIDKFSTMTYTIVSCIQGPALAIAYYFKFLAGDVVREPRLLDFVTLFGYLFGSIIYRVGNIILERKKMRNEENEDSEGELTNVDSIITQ
T3 sequence (Q8IDM6 whole entry): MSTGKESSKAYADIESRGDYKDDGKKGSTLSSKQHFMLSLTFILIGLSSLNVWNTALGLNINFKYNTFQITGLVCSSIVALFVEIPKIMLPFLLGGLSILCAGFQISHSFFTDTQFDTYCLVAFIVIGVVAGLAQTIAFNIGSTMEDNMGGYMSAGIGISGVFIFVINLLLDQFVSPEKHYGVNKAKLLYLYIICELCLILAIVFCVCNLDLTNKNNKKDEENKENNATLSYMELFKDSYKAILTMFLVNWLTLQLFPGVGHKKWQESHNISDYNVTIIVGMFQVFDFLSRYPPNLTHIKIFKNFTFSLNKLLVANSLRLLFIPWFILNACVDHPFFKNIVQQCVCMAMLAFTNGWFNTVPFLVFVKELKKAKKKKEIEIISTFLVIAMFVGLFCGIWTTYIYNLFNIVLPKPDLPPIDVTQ

HVDD [HD-4]
Uptake of [3H]CQ (% non-expressing oocyte control), cis-inhibition (non-expressing oocytes [1]; [test solute] = 0.5 mM): 99 ± 5.3 % non-expressing oocyte control
Uptake of [3H]CQ (% non-expressing oocyte control), cis-inhibition (non-expressing oocytes [1]; [test solute] = 1 mM): 100 ± 5.2 % non-expressing oocyte control
Uptake of [3H]CQ (% non-expressing oocyte control), cis-inhibition (non-expressing oocytes [1]; [test solute] = 2 mM): 97 ± 5.5 % non-expressing oocyte control
Uptake of [3H]CQ (% PfCRTEcu1110 control), trans-stimulation (PfCRT^Ecu1110 [2]; PfCRTEcu1110 oocytes, [test solute]i = 45 mM (30 mM for some solutes due to solubility), total [3H]CQ transport, normalised to the oocyte type control): 99 ± 3.2 % PfCRTEcu1110 control
PfCRT-mediated [3H]CQ transport, trans-stimulation (% PfCRTEcu1110 control) (PfCRT^Ecu1110 [2]; [test solute]i = 5 mM (intracellular), PfCRTEcu1110 oocytes): 99 ± 4.9 % PfCRTEcu1110 control
PfCRT-mediated [3H]CQ transport, trans-stimulation (% PfCRTEcu1110 control) (PfCRT^Ecu1110 [2]; [test solute]i = 45 mM (intracellular; 30 mM for some solutes due to solubility), PfCRTEcu1110 oocytes): 97 ± 4.8 % PfCRTEcu1110 control
[3H]CQ transport (% PfCRTDd2 control), trans-stimulation, PfCRTEcu1110 (PfCRT^Ecu1110 [2]; [9]): 30 ± 1.6 % PfCRTEcu1110 control
[3H]CQ transport (% PfCRTDd2 control), trans-stimulation, PfCRTEcu1110 (PfCRT^Ecu1110 [2]; [10]): 29 ± 1.5 % PfCRTEcu1110 control
Uptake of [3H]CQ (% PfCRT3D7 control), trans-stimulation (PfCRT^3D7 [3]; [test solute]i = 5 mM): 98 ± 4.1 % PfCRT3D7 control
Uptake of [3H]CQ (% PfCRT3D7 control), trans-stimulation (PfCRT^3D7 [3]; [10]): 96 ± 1.7 % PfCRT3D7 control
[3H]CQ transport (% PfCRT3D7 control), trans-stimulation, PfCRT3D7 (PfCRT^3D7 [3]; SEM): 0.1 ± 0.01
PfCRT-mediated [3H]CQ transport, trans-stimulation (% PfCRT3D7 control) (PfCRT^3D7 [3]; [11]): 96 ± 3.3 % PfCRT3D7 control
PfCRT-mediated [3H]CQ transport, trans-stimulation (% PfCRT3D7 control) (PfCRT^3D7 [3]; [12]): 94 ± 4.9 % PfCRT3D7 control
Uptake of [3H]CQ (% PfNT1 control), trans-stimulation (PfNT1; [test solute]i = 5 mM): 100 ± 2.7 % PfNT1 control
Uptake of [3H]CQ (% PfNT1 control), trans-stimulation (PfNT1; [10]): 99 ± 2.5 % PfNT1 control
Uptake of [3H]CQ (% PfCRTDd2 control), trans-stimulation (PfCRT^Dd2 [4]; [test solute]i = 5 mM): 99 ± 4.3 % PfCRTDd2 control
Uptake of [3H]CQ (% PfCRTDd2 control), trans-stimulation (PfCRT^Dd2 [4]; [10]): 100 ± 2.4 % PfCRTDd2 control
PfCRT-mediated [3H]CQ transport, trans-stimulation (% PfCRTDd2 control) (PfCRT^Dd2 [4]; [11]): 97 ± 2.9 % PfCRTDd2 control
PfCRT-mediated [3H]CQ transport, trans-stimulation (% PfCRTDd2 control) (PfCRT^Dd2 [4]; [12]): 98 ± 3.9 % PfCRTDd2 control
[3H]CQ transport (% PfCRTDd2 control), trans-stimulation, PfCRTDd2 (PfCRT^Dd2 [4]; [9]): 97 ± 2.9 % PfCRTDd2 control
[3H]CQ transport (% PfCRTDd2 control), trans-stimulation, PfCRTDd2 (PfCRT^Dd2 [4]; [10]): 98 ± 3.9 % PfCRTDd2 control
Uptake of [3H]CQ (% PfCRTEcu1110 control), cis-inhibition (PfCRT^Ecu1110 [5]; [test solute] = 0.5 mM): 53 ± 8.3 % PfCRTEcu1110 control
Uptake of [3H]CQ (% PfCRTEcu1110 control), cis-inhibition (PfCRT^Ecu1110 [5]; [test solute] = 1 mM): 44 ± 6.1 % PfCRTEcu1110 control
Uptake of [3H]CQ (% PfCRTEcu1110 control), cis-inhibition (PfCRT^Ecu1110 [5]; [test solute] = 2 mM): 32 ± 4.7 % PfCRTEcu1110 control
PfCRT-mediated [3H]CQ transport, cis-inhibition (% PfCRTEcu1110 control) (PfCRT^Ecu1110 [5]; [test solute] = 0.5 mM): 49 ± 1.4 % PfCRTEcu1110 control
PfCRT-mediated [3H]CQ transport, cis-inhibition (% PfCRTEcu1110 control) (PfCRT^Ecu1110 [5]; [test solute] = 1 mM): 39 ± 3.1 % PfCRTEcu1110 control
PfCRT-mediated [3H]CQ transport, cis-inhibition (% PfCRTEcu1110 control) (PfCRT^Ecu1110 [5]; [test solute] = 2 mM): 28 ± 1.3 % PfCRTEcu1110 control
[3H]CQ transport (% PfCRTEcu1110 control), cis-inhibition, PfCRTEcu1110 (PfCRT^Ecu1110 [5]; cis-inhibition, [test solute] = 2 mM, PfCRT-mediated component (background subtracted), sheet title says normalised to PfCRTDd2 control, mean ± SEM, SEM): 9.0 ± 0.03 % PfCRTEcu1110 control
PfCRT-mediated [3H]CQ transport, cis-inhibition (% PfCRTDd2 control) (PfCRT^Dd2 [6]; [test solute] = 0.5 mM): 44 ± 2.3 % PfCRTDd2 control
PfCRT-mediated [3H]CQ transport, cis-inhibition (% PfCRTDd2 control) (PfCRT^Dd2 [6]; [test solute] = 1 mM): 31 ± 1.0 % PfCRTDd2 control
PfCRT-mediated [3H]CQ transport, cis-inhibition (% PfCRTDd2 control) (PfCRT^Dd2 [6]; [test solute] = 2 mM): 19 ± 0.8 % PfCRTDd2 control
Uptake of [3H]CQ (% PfCRT3D7 control), cis-inhibition (PfCRT^3D7 [7]; [test solute] = 0.5 mM): 100 ± 3.8 % PfCRT3D7 control
Uptake of [3H]CQ (% PfCRT3D7 control), cis-inhibition (PfCRT^3D7 [7]; [test solute] = 1 mM): 102 ± 3.7 % PfCRT3D7 control
Uptake of [3H]CQ (% PfCRT3D7 control), cis-inhibition (PfCRT^3D7 [7]; [test solute] = 2 mM): 99 ± 3.6 % PfCRT3D7 control
Uptake of [3H]CQ (% non-expressing oocyte control), trans-stimulation (non-expressing oocytes [8]; [test solute]i = 5 mM): 100 ± 3.6 % non-expressing oocyte control
Uptake of [3H]CQ (% non-expressing oocyte control), trans-stimulation (non-expressing oocytes [8]; [10]): 98 ± 3.3 % non-expressing oocyte control
